Values joined by “and” are separate entries in the source; they are usually repeats but may differ in a detail not shown here. Equal entries are not always repeated.
Test system: Swiss mice, Sarcoma 180 sc, mean tumor weight T/C
Experiment: NCI In Vivo Anticancer Drug Screen. Data for tumor model Sarcoma 180 (subcutaneous) in Swiss mice
Details: endpoint: mean tumor weight, higher = larger tumour
Summary of the method: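 Transplantable tumors were established in mice, compound was given, then survival or tumor size was recorded. The treated value was divided by the vehicle-control value.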

[1] = dose: 125.0 mg/kg/injection, schedule: Q01DX007 (ip), vehicle: carboxymethylcellulose (CMC)
[2] = dose: 250.0 mg/kg/injection, schedule: Q01DX007 (ip), vehicle: carboxymethylcellulose (CMC)
[3] = dose: 0.5 mg/kg/injection, schedule: Q01DX007 (ip), vehicle: carboxymethylcellulose (CMC)
[4] = dose: 1.0 mg/kg/injection, schedule: Q01DX007 (ip), vehicle: carboxymethylcellulose (CMC)

SMILES: O=C1C=CC(=O)N1c1ccc2c(c1)oc(=O)c1ccccc12
- T/C (dose: 60.0 mg/kg/injection, schedule: Q01DX007 (ip), vehicle: other): 76 % of control
- T/C (dose: 95.0 mg/kg/injection, schedule: Q01DX007 (ip), vehicle: other): 58 % of control
- T/C (dose: 99.0 mg/kg/injection, schedule: Q01DX007 (ip), vehicle: steriod suspending solution): 51 % of control
- T/C (dose: 148.0 mg/kg/injection, schedule: Q01DX007 (ip), vehicle: other): 42 % of control
- T/C (dose: 148.0 mg/kg/injection, schedule: Q01DX007 (ip), vehicle: steriod suspending solution): 81 % of control
- T/C (dose: 222.0 mg/kg/injection, schedule: Q01DX007 (ip), vehicle: other): 36 % of control and 44 % of control
- T/C (dose: 222.0 mg/kg/injection, schedule: Q01DX007 (ip), vehicle: steriod suspending solution): 69 % of control
- T/C (dose: 333.0 mg/kg/injection, schedule: Q01DX007 (ip), vehicle: other): 49 % of control
- T/C (dose: 500.0 mg/kg/injection, schedule: Q01DX007 (ip), vehicle: other): 29 % of control

SMILES: O=C(N[C@H](CO)[C@H](O)c1ccc([N+](=O)[O-])cc1)C(Cl)Cl
- T/C [1]: 99 % of control
- T/C [2]: 111 % of control and 112 % of control
- T/C (dose: 375.0 mg/kg/injection, schedule: Q#A X014 (ip), vehicle: carboxymethylcellulose (CMC)): 45 % of control
- T/C (dose: 400.0 mg/kg/injection, schedule: Q01DX007 (ip), vehicle: carboxymethylcellulose (CMC)): 76 % of control
- T/C (dose: 666.66 mg/kg/injection, schedule: Q01DX007 (ip), vehicle: carboxymethylcellulose (CMC)): 105 % of control
- T/C (dose: 1000.0 mg/kg/injection, schedule: Q01DX007 (ip), vehicle: carboxymethylcellulose (CMC)): 97 % of control

SMILES: CCOC(=O)CCCc1ccc(N/N=N/c2nc[nH]c2C(N)=O)cc1
- T/C (dose: 46.0 mg/kg/injection, schedule: Q01DX007 (ip), vehicle: carboxymethylcellulose (CMC)): 79 % of control and 80 % of control
- T/C (dose: 187.0 mg/kg/injection, schedule: Q01DX007 (ip), vehicle: carboxymethylcellulose (CMC)): 46 % of control
- T/C [2]: 39 % of control

SMILES: COc1ccc2c3c(c4cc(OC)c(OC)cc4c2c1)C[C@H]1CCCCN1C3
- T/C [3]: 82 % of control
- T/C [4]: 65 % of control

SMILES: O=c1[nH]c(=O)c2[nH]c(N=Nc3ccc(N(CCCl)CCCl)cc3)nc2[nH]1
- T/C (dose: 6.25 mg/kg/injection, schedule: Q#A X014 (ip), vehicle: saline): 97 % of control
- T/C (dose: 12.5 mg/kg/injection, schedule: Q#A X014 (ip), vehicle: saline): 72 % of control
- T/C (dose: 25.0 mg/kg/injection, schedule: Q#A X014 (ip), vehicle: saline): 85 % of control
- T/C (dose: 50.0 mg/kg/injection, schedule: Q#A X014 (ip), vehicle: saline): 34 % of control and 49 % of control
- T/C (dose: 100.0 mg/kg/injection, schedule: Q#A X014 (ip), vehicle: saline): 36 % of control

SMILES: O=C(Nc1ccc(C2=NCCCN2)cc1)c1ccc(NC(=O)c2ccc(C3=NCCCN3)cc2)cc1
- T/C (dose: 8.0 mg/kg/injection, schedule: Q01DX007 (ip), vehicle: carboxymethylcellulose (CMC)): 78 % of control
- T/C (dose: 16.0 mg/kg/injection, schedule: Q01DX007 (ip), vehicle: carboxymethylcellulose (CMC)): 73 % of control

SMILES: CC(/C=N\N=C(N)N)=N/N=C(N)N
- T/C (dose: 42.1 mg/kg/injection, schedule: Q01DX007 (ip), vehicle: carboxymethylcellulose (CMC)): 113 % of control

SMILES: O=C(O)CCCc1ccc(N(CCCl)CCCl)cc1
- T/C (dose: 1.93 mg/kg/injection, schedule: Q01DX007 (ip), vehicle: carboxymethylcellulose (CMC)): 49 % of control
- T/C (dose: 2.62 mg/kg/injection, schedule: Q#A X014 (ip), vehicle: carboxymethylcellulose (CMC)): 99 % of control
- T/C (dose: 3.01 mg/kg/injection, schedule: Q01DX007 (ip), vehicle: carboxymethylcellulose (CMC)): 88 % of control
- T/C (dose: 3.85 mg/kg/injection, schedule: Q01DX007 (ip), vehicle: carboxymethylcellulose (CMC)): 41 % of control
- T/C (dose: 5.25 mg/kg/injection, schedule: Q#A X014 (ip), vehicle: carboxymethylcellulose (CMC)): 69 % of control
- T/C (dose: 5.6 mg/kg/injection, schedule: Q01DX007 (ip), vehicle: carboxymethylcellulose (CMC)): 71 % of control
- T/C (dose: 6.03 mg/kg/injection, schedule: Q01DX007 (ip), vehicle: carboxymethylcellulose (CMC)): 86 % of control
- T/C (dose: 7.0 mg/kg/injection, schedule: Q01DX007 (ip), vehicle: carboxymethylcellulose (CMC)): 52 % of control and 57 % of control
- T/C (dose: 7.7 mg/kg/injection, schedule: Q01DX007 (ip), vehicle: carboxymethylcellulose (CMC)): 37 % of control
- T/C (dose: 9.33 mg/kg/injection, schedule: Q01DX007 (ip), vehicle: carboxymethylcellulose (CMC)): 63 % of control
- T/C (dose: 10.5 mg/kg/injection, schedule: Q01DX007 (ip), vehicle: carboxymethylcellulose (CMC)): 60 % of control
- T/C (dose: 10.5 mg/kg/injection, schedule: Q#A X014 (ip), vehicle: carboxymethylcellulose (CMC)): 18 % of control
- T/C (dose: 12.05 mg/kg/injection, schedule: Q01DX007 (ip), vehicle: carboxymethylcellulose (CMC)): 58 % of control
- T/C (dose: 14.0 mg/kg/injection, schedule: Q01DX007 (ip), vehicle: carboxymethylcellulose (CMC)): 23 % of control and 48 % of control

SMILES: C[C@@H](N)[C@@H](O)c1ccccc1
- T/C (dose: 3.13 mg/kg/injection, schedule: Q01DX007 (ip), vehicle: saline): 89 % of control
- T/C (dose: 6.25 mg/kg/injection, schedule: Q01DX007 (ip), vehicle: saline): 91 % of control
- T/C (dose: 12.5 mg/kg/injection, schedule: Q01DX007 (ip), vehicle: saline): 51 % of control
- T/C (dose: 25.0 mg/kg/injection, schedule: Q01DX007 (ip), vehicle: saline): 52 % of control

SMILES: COc1cc(C[C@H]2c3cc(OC)c(OC)cc3CCN2C)c(Oc2cc3c(cc2OC)-c2c(OC)c(OC)cc4c2[C@H](C3)N(C)CC4)cc1OC
- T/C (dose: 7.8 mg/kg/injection, schedule: Q01DX007 (ip), vehicle: saline): 96 % of control
- T/C (dose: 15.6 mg/kg/injection, schedule: Q01DX007 (ip), vehicle: saline): 77 % of control
- T/C (dose: 31.3 mg/kg/injection, schedule: Q01DX007 (ip), vehicle: saline): 78 % of control
- T/C (dose: 62.5 mg/kg/injection, schedule: Q01DX007 (ip), vehicle: saline): 57 % of control and 68 % of control
- T/C (dose: 125.0 mg/kg/injection, schedule: Q01DX007 (ip), vehicle: saline): 63 % of control

SMILES: CN(/N=N/N(C)c1ccccc1)c1ccccc1
- T/C (dose: 7.8 mg/kg/injection, schedule: Q01DX007 (ip), vehicle: carboxymethylcellulose (CMC)): 72 % of control
- T/C (dose: 15.6 mg/kg/injection, schedule: Q01DX007 (ip), vehicle: carboxymethylcellulose (CMC)): 62 % of control
- T/C (dose: 31.3 mg/kg/injection, schedule: Q01DX007 (ip), vehicle: carboxymethylcellulose (CMC)): 75 % of control
- T/C (dose: 62.5 mg/kg/injection, schedule: Q01DX007 (ip), vehicle: carboxymethylcellulose (CMC)): 49 % of control and 74 % of control
- T/C [1]: 37 % of control

SMILES: CCCCCCCCCCCCCCCC[N+]1(C)CCN(SN2CC[N+](C)(CCCCCCCCCCCCCCCC)CC2)CC1
- T/C (dose: 21.0 mg/kg/injection, schedule: Q#A X014 (ip), vehicle: saline): 55 % of control and 77 % of control
- T/C (dose: 31.5 mg/kg/injection, schedule: Q#A X014 (ip), vehicle: saline): 53 % of control and 76 % of control
- T/C (dose: 47.5 mg/kg/injection, schedule: Q#A X014 (ip), vehicle: saline): 65 % of control
- T/C (dose: 71.5 mg/kg/injection, schedule: Q#A X014 (ip), vehicle: saline): 37 % of control

SMILES: NNC(=O)CCC(N)C(=O)O (stereo unspecified)
- T/C (dose: 5.75 mg/kg/injection, schedule: Q#A X014 (ip), vehicle: carboxymethylcellulose (CMC)): 97 % of control
- T/C (dose: 11.5 mg/kg/injection, schedule: Q#A X014 (ip), vehicle: carboxymethylcellulose (CMC)): 90 % of control
- T/C (dose: 23.0 mg/kg/injection, schedule: Q#A X014 (ip), vehicle: carboxymethylcellulose (CMC)): 118 % of control
- T/C (dose: 46.0 mg/kg/injection, schedule: Q#A X014 (ip), vehicle: carboxymethylcellulose (CMC)): 70 % of control

SMILES: CCOC(=O)C(Cc1ccccc1)c1ccc(Cl)cc1 (stereo unspecified)
- T/C (dose: 62.5 mg/kg/injection, schedule: Q01DX007 (ip), vehicle: methylcellulose (MC)): 67 % of control
- T/C (dose: 125.0 mg/kg/injection, schedule: Q01DX007 (ip), vehicle: methylcellulose (MC)): 75 % of control
- T/C (dose: 250.0 mg/kg/injection, schedule: Q01DX007 (ip), vehicle: methylcellulose (MC)): 118 % of control

SMILES: N#Cc1cn(C2OC(CO)C(O)C2O)c2ncnc(N)c12 (stereo unspecified)
- T/C (dose: 0.05 mg/kg/injection, schedule: Q#A X014 (ip), vehicle: carboxymethylcellulose (CMC)): 79 % of control

SMILES: Nc1n[se]nc1C(=O)O
- T/C [3]: 96 % of control
- T/C [4]: 117 % of control
- T/C (dose: 2.0 mg/kg/injection, schedule: Q01DX007 (ip), vehicle: carboxymethylcellulose (CMC)): 77 % of control

From PubChem BioAssay AID342 (DTP/NCI, 2004)
